The values that follow come from PubChem BioAssay AID292 (DTP/NCI, 2004).

Values joined by “and” are separate entries in the source; they are usually repeats but may differ in a detail not shown here. Equal entries are not always repeated. Toxic doses and inconclusive results are not listed.

For the test, the system named is B6C3F1 mice, ip Sarcoma M5076, median survival T/C. In words: NCI In Vivo Anticancer Drug Screen. Data for tumor model Sarcoma M5076 (intraperitoneal) in B6C3F1 mice. To be noted: endpoint: median survival time, schedule: Q04DX004 (ip), higher = longer survival. A digest of the protocol:
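Survival measured in treated (T) and vehicle control (C) mice with transplantable tumour; result given as T divided by C.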

[1] abbreviates: dose: 50.0 mg/kg/injection, vehicle: Klucel (hydroxypropylcellulose) (HPC).
Setting [2] is: dose: 100.0 mg/kg/injection, vehicle: Klucel (hydroxypropylcellulose) (HPC).
The mark [3] stands for this setting: dose: 200.0 mg/kg/injection, vehicle: Klucel (hydroxypropylcellulose) (HPC).
[4] abbreviates: dose: 400.0 mg/kg/injection, vehicle: Klucel (hydroxypropylcellulose) (HPC).
The mark [5] stands for this setting: dose: 25.0 mg/kg/injection, vehicle: saline with Tween-80.
Setting [6] is: dose: 50.0 mg/kg/injection, vehicle: saline with Tween-80.
Setting [7] is: dose: 100.0 mg/kg/injection, vehicle: saline with Tween-80.
The mark [8] stands for this setting: dose: 200.0 mg/kg/injection, vehicle: saline with Tween-80.
[9] abbreviates: dose: 12.5 mg/kg/injection, vehicle: saline with Tween-80.
Where [10] appears, read: dose: 37.5 mg/kg/injection, vehicle: Klucel (hydroxypropylcellulose) (HPC).
Where [11] appears, read: dose: 75.0 mg/kg/injection, vehicle: Klucel (hydroxypropylcellulose) (HPC).
Where [12] appears, read: dose: 150.0 mg/kg/injection, vehicle: Klucel (hydroxypropylcellulose) (HPC).
[13] abbreviates: dose: 300.0 mg/kg/injection, vehicle: Klucel (hydroxypropylcellulose) (HPC).

Turning to `CCOC(=O)Cn1nc2oc(=O)c(CCN3CCN(c4ccccc4OC)CC3)c(C)c2c1C`, the T/C is 103 % of control under setting [1]; 103 % of control under setting [2]; 90 % of control under setting [3]; 94 % of control under setting [4]; 89 % of control (dose: 800.0 mg/kg/injection, vehicle: Klucel (hydroxypropylcellulose) (HPC)).
For `CCN(CC)c1ccc2[nH]c3c(C(N)=O)cc(=O)c(=O)c=3oc2c1`, the T/C runs as follows: under setting [5], 105 % of control; under setting [6], 108 % of control; under setting [7], 106 % of control; under setting [8], 96 % of control.
Take `OC1(c2cccc(Cl)c2)C2=NCCCN2c2ccccc21` (stereo not given): the T/C is, setting by setting: (dose: 6.25 mg/kg/injection, vehicle: saline with Tween-80) 102 % of control; under setting [9], 103 % of control; under setting [5], 100 % of control; under setting [6], 99 % of control.
Regarding `COc1cc(/C=C/[N+](=O)[O-])cc(Br)c1OC`, the T/C under setting [9] is 95 % of control, the T/C under setting [5] is 90 % of control, the T/C under setting [6] was 94 % of control and the T/C under setting [7] was 107 % of control.
For the molecule `CN(C)C=O`, the T/C (dose: 10.0 mg/kg/injection, vehicle: saline) is 104 % of control; the T/C (dose: 20.0 mg/kg/injection, vehicle: saline) was 111 % of control; the T/C (dose: 40.0 mg/kg/injection, vehicle: saline) is 104 % of control; the T/C (dose: 80.0 mg/kg/injection, vehicle: saline) is 100 % of control; the T/C (dose: 100.0 mg/kg/injection, vehicle: saline) is 103 % of control; the T/C (dose: 160.0 mg/kg/injection, vehicle: saline) is 104 % of control. Moreover, the T/C reads like this: (dose: 200.0 mg/kg/injection, vehicle: saline) 107 % of control; (dose: 400.0 mg/kg/injection, vehicle: saline) 100 % of control; (dose: 800.0 mg/kg/injection, vehicle: saline) 107 % of control; (dose: 1600.0 mg/kg/injection, vehicle: saline) 108 % of control.
Take `Cc1ccccc1C1C(C#N)C(=O)NC(=O)C1C#N` (stereo not given): the T/C is 102 % of control under setting [1], 105 % of control under setting [2], 102 % of control under setting [3] and 98 % of control under setting [4].
Take `COc1ccc(NC(=O)C2C(=O)C(=O)N(c3ccc(OC)cc3OC)C2=O)c(OC)c1` (stereo not given): the T/C runs as follows: under setting [1], 100 % of control; under setting [2], 100 % of control; under setting [3], 97 % of control.
Consider `c1ccc(-c2nc3cc4c(cc3n3cccc23)oc2ccccc24)cc1`, for which the T/C was 90 % of control under setting [5]; 101 % of control under setting [6]; 91 % of control (dose: 400.0 mg/kg/injection, vehicle: saline with Tween-80).
As for `COc1cc(C#N)c(NC(=S)N2CCN(C(=O)c3ccco3)CC2)cc1OC`, the T/C runs as follows: under setting [1], 98 % of control; under setting [2], 111 % of control; under setting [3], 103 % of control; under setting [4], 90 % of control.
As for `Nc1nc(=O)nc2[nH]c3c4cccc5cccc(c3nc12)c54` (tested in a mixture with another compound), the T/C reads like this: (dose: 18.75 mg/kg/injection, vehicle: Klucel (hydroxypropylcellulose) (HPC)) 104 % of control; under setting [10], 102 % of control; under setting [11], 104 % of control; under setting [12], 98 % of control; under setting [13], 94 % of control.
Take `CCOc1cc2c(cc1C(C)c1ccc(OC)cc1)OCO2` (stereo not given): the T/C by setting is: (dose: 50.0 mg/kg/injection, vehicle: distilled water + alcohol) 119 % of control; (dose: 100.0 mg/kg/injection, vehicle: distilled water + alcohol) 110 % of control; (dose: 200.0 mg/kg/injection, vehicle: distilled water + alcohol) 123 % of control.
For the molecule `O=[N+]([O-])c1ccc(C=C2C=CN(CCO)C=C2)cc1`, the T/C is, setting by setting: under setting [5], 115 % of control; under setting [6], 115 % of control; under setting [7], 106 % of control.
Turning to `CCN(CC)CCN1C(=O)C2C3C=CC(C2C1=O)C1C2C(=O)N(CCN(CC)CC)C(=O)C2C31` (stereo not given), the T/C reads like this: (dose: 25.0 mg/kg/injection, vehicle: water) 95 % of control; (dose: 50.0 mg/kg/injection, vehicle: water) 99 % of control; (dose: 100.0 mg/kg/injection, vehicle: water) 97 % of control; (dose: 200.0 mg/kg/injection, vehicle: water) 99 % of control.
In the case of `CSC1=NCc2c(sc3c2CCCC3)N1`, the T/C is, setting by setting: under setting [10], 98 % of control; under setting [11], 103 % of control; under setting [12], 99 % of control; under setting [13], 102 % of control.
As for `C=C(Cl)C(=NC(C)(C)C)Nc1ccccc1C`, the T/C by setting is: (dose: 3.0 mg/kg/injection, vehicle: Klucel (hydroxypropylcellulose) (HPC)) 98 % of control; (dose: 6.0 mg/kg/injection, vehicle: Klucel (hydroxypropylcellulose) (HPC)) 116 % of control; (dose: 6.25 mg/kg/injection, vehicle: Klucel (hydroxypropylcellulose) (HPC)) 108 % of control; (dose: 12.0 mg/kg/injection, vehicle: Klucel (hydroxypropylcellulose) (HPC)) 103 % of control; (dose: 24.0 mg/kg/injection, vehicle: Klucel (hydroxypropylcellulose) (HPC)) 98 % of control; (dose: 25.0 mg/kg/injection, vehicle: Klucel (hydroxypropylcellulose) (HPC)) 117 % of control. The T/C (dose: 48.0 mg/kg/injection, vehicle: Klucel (hydroxypropylcellulose) (HPC)) is 104 % of control.
Consider `Nc1ccc2ccc(N)cc2c1`, for which the T/C under setting [5] was 93 % of control, the T/C under setting [6] was 96 % of control, the T/C under setting [7] is 89 % of control and the T/C under setting [8] is 93 % of control.
With `CC(C)(O)/C=C/C(=O)[C@](C)(O)[C@H]1[C@H](O)C[C@@]2(C)[C@@H]3CC=C4[C@@H](C=C(O)C(=O)C4(C)C)[C@]3(C)C(=O)C[C@]12C`, the T/C reads like this: (dose: 0.5 mg/kg/injection, vehicle: water) 111 % of control; (dose: 1.0 mg/kg/injection, vehicle: water) 117 % of control; (dose: 1.67 mg/kg/injection, vehicle: water) 113 % of control.
`CN(C)CCCOc1nc2c(c(=O)n(C)c(=O)n2C)n1C` (tested in a mixture with another compound): the T/C runs as follows: under setting [1], 169 % of control and 182 % of control; under setting [2], 163 % of control and 197 % of control; under setting [3], 208 % of control and 267 % of control.
Turning to `O=C(c1ncccc1O)N1CCCCC1`, the T/C runs as follows: (dose: 40.63 mg/kg/injection, vehicle: distilled water + Tween-80) 86 % of control; (dose: 81.25 mg/kg/injection, vehicle: distilled water + Tween-80) 103 % of control; (dose: 325.0 mg/kg/injection, vehicle: distilled water + Tween-80) 97 % of control; (dose: 650.0 mg/kg/injection, vehicle: distilled water + Tween-80) 90 % of control.
For `C=C(C)/C([O-])=N/[N+](C)(C)CC(O)CCCCCCCCCCCC` (stereo not given), the T/C was 97 % of control (dose: 12.5 mg/kg/injection, vehicle: suspension in saline); 95 % of control (dose: 25.0 mg/kg/injection, vehicle: suspension in saline); 100 % of control (dose: 50.0 mg/kg/injection, vehicle: suspension in saline); 92 % of control (dose: 100.0 mg/kg/injection, vehicle: suspension in saline).
